Test results taken from patent publication EP0028689A1, “Antimycotic agents containing acylated triazolyl-gamma-fluoropinacolyl derivatives, and their preparation” (BAYER AG, priority 1979, dated 1981).

Test system: Candida
Test: Antimicrobial in-vivo activity (oral) in mouse candidosis
Conditions: mice infected i.v. with Candida cells; 100 mg/kg oral one hour before and seven hours after infection; survivors on day 6 p.i.
Method: Versuchsbeschreibung: • Mäuse vom Typ SPF-CF1 wurden intravenös mit 1-2 x 10 logaritmisch wachsenden Candida-Zellen, die in physiologischer Kochsalzlösung suspendiert waren, infiziert. Eine Stunde vor und sieben Stunden nach der Infektion wurden die Tiere mit jeweils 100 mg/kg Körpergewicht der Präparate oral behandelt.
+++++ = sehr gute Wirkung = ≥ 90% Überlebende am 6.Tag p.i. ++++ = gute Wirkung = ≥30% Überlebende am 6.Tag p.i. +++ = Wirkung = ≥60% Überlebende am 6.Tag p.i. ++ = schwache Wirkung = ≥40% Überlebende am 6.Tag p.i. + = Spur Wirkung k.W.= keine Wirkung

CC(=O)OC(C(Oc1ccc(Cl)cc1C)n1cncn1)C(C)(C)C (stereo not shown)
Wirkung: k.W.
